In PMC7034854, “Inter-species variation in monovalent anion substrate selectivity and inhibitor sensitivity in the sodium iodide symporter (NIS)” (PLoS ONE, 2020):

Legend:
[1] = molecular target: T1, sodium iodide symporter (hNIS) (Homo sapiens, UniProt Q92911); assay: […]- uptake inhibition in transduced HeLa cells; type: cell-based
T1 construct: gene SLC5A5; N-terminally HA-tagged NIS (643 residues) expressed in HeLa cells
T1 sequence (Q92911 1-643): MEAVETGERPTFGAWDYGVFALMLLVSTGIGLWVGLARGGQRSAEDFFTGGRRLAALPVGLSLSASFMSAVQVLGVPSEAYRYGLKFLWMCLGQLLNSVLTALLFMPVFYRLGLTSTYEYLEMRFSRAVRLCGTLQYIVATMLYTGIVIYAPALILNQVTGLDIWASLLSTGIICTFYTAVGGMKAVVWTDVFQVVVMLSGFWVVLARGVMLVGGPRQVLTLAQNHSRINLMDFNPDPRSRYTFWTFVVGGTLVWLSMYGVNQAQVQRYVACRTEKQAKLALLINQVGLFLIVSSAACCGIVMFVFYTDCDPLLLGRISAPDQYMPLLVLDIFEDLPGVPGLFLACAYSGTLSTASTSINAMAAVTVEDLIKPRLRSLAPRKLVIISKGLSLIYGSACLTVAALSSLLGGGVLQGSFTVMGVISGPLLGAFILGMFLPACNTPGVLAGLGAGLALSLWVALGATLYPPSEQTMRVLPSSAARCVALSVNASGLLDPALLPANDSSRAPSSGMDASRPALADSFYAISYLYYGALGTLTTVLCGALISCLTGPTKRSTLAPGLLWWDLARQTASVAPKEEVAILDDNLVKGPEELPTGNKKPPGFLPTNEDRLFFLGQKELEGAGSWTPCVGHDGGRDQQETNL

[2] = molecular target: T2, sodium iodide symporter (zNIS) (Danio rerio, UniProt A0AC58G7K6); assay: […]- uptake inhibition in transduced HeLa cells; type: cell-based
T2 construct: gene slc5a5; N-terminally HA-tagged NIS (601 residues, NP_001082860.1) expressed in HeLa cells
T2 sequence (A0AC58G7K6 1-601): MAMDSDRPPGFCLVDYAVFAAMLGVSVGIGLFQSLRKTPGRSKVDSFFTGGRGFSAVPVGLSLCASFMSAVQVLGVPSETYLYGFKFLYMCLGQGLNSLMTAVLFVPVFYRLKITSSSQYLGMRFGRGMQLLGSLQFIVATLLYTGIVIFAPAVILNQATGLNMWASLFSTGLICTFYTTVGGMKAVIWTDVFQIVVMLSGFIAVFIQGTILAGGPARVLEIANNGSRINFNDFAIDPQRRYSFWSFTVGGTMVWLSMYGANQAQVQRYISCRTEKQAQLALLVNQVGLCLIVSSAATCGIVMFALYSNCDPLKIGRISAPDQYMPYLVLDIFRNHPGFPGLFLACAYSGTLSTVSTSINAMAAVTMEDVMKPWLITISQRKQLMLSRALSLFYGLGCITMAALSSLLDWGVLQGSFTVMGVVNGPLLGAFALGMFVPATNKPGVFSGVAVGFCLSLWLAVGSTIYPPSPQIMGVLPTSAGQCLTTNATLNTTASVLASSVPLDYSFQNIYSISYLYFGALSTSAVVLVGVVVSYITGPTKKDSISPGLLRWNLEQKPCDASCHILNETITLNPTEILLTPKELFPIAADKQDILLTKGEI

[3] = molecular target: T3, sodium iodide symporter (wNIS) (Balaenoptera acutorostrata, UniProt A0A384B8D1); assay: […]- uptake inhibition in transduced HeLa cells; type: cell-based
T3 construct: gene SLC5A5; N-terminally HA-tagged NIS (642 residues, XP_007195539.1) expressed in HeLa cells
T3 sequence (A0A384B8D1 1-642): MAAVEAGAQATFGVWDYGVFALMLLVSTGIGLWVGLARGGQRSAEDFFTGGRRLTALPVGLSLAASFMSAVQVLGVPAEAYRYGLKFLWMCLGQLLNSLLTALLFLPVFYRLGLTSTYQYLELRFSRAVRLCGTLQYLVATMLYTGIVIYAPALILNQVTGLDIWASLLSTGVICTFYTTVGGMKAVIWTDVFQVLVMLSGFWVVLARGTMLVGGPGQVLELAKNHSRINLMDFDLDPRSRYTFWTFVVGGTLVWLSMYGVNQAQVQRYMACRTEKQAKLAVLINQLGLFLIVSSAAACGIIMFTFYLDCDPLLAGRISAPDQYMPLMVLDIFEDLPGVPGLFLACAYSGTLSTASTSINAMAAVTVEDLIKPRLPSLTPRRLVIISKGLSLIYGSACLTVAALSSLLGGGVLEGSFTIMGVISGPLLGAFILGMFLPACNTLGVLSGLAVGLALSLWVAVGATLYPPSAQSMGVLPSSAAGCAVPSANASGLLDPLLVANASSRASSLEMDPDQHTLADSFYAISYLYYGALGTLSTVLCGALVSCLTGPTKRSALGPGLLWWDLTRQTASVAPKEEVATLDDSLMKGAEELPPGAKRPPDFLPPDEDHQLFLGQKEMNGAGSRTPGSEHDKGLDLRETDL

[4] = substrate: I; assay: iodide uptake kinetics (Km) in transduced HeLa cells; type: cell-based, Balaenoptera acutorostrata; conditions: Na+
[5] = substrate: I; assay: as above; type: cell-based, Homo sapiens; conditions: Na+
[6] = substrate: I; assay: as above; type: cell-based, Danio rerio; conditions: Na+
Description: iodide uptake kinetics (Km) in transduced HeLa cells on sodium iodide symporter (zNIS) | zNIS binds to iodide with the greatest affinity of the proteins examined in this study

[O-][Cl+3]([O-])([O-])O [perchlorate]
IC50 [1]: 1570 nM | IC50 [2]: 81 nM | IC50 [3]: 4600 nM

B1: sodium iodide symporter (wNIS) (Balaenoptera acutorostrata) (protein)
chain: MAAVEAGAQATFGVWDYGVFALMLLVSTGIGLWVGLARGGQRSAEDFFTGGRRLTALPVGLSLAASFMSAVQVLGVPAEAYRYGLKFLWMCLGQLLNSLLTALLFLPVFYRLGLTSTYQYLELRFSRAVRLCGTLQYLVATMLYTGIVIYAPALILNQVTGLDIWASLLSTGVICTFYTTVGGMKAVIWTDVFQVLVMLSGFWVVLARGTMLVGGPGQVLELAKNHSRINLMDFDLDPRSRYTFWTFVVGGTLVWLSMYGVNQAQVQRYMACRTEKQAKLAVLINQLGLFLIVSSAAACGIIMFTFYLDCDPLLAGRISAPDQYMPLMVLDIFEDLPGVPGLFLACAYSGTLSTASTSINAMAAVTVEDLIKPRLPSLTPRRLVIISKGLSLIYGSACLTVAALSSLLGGGVLEGSFTIMGVISGPLLGAFILGMFLPACNTLGVLSGLAVGLALSLWVAVGATLYPPSAQSMGVLPSSAAGCAVPSANASGLLDPLLVANASSRASSLEMDPDQHTLADSFYAISYLYYGALGTLSTVLCGALVSCLTGPTKRSALGPGLLWWDLTRQTASVAPKEEVATLDDSLMKGAEELPPGAKRPPDFLPPDEDHQLFLGQKEMNGAGSRTPGSEHDKGLDLRETDL
notes: N-terminally HA-tagged NIS (642 residues, XP_007195539.1) expressed in HeLa cells
Km [4]: 30.04 µM

B2: sodium iodide symporter (hNIS) (Homo sapiens) (protein)
chain: MEAVETGERPTFGAWDYGVFALMLLVSTGIGLWVGLARGGQRSAEDFFTGGRRLAALPVGLSLSASFMSAVQVLGVPSEAYRYGLKFLWMCLGQLLNSVLTALLFMPVFYRLGLTSTYEYLEMRFSRAVRLCGTLQYIVATMLYTGIVIYAPALILNQVTGLDIWASLLSTGIICTFYTAVGGMKAVVWTDVFQVVVMLSGFWVVLARGVMLVGGPRQVLTLAQNHSRINLMDFNPDPRSRYTFWTFVVGGTLVWLSMYGVNQAQVQRYVACRTEKQAKLALLINQVGLFLIVSSAACCGIVMFVFYTDCDPLLLGRISAPDQYMPLLVLDIFEDLPGVPGLFLACAYSGTLSTASTSINAMAAVTVEDLIKPRLRSLAPRKLVIISKGLSLIYGSACLTVAALSSLLGGGVLQGSFTVMGVISGPLLGAFILGMFLPACNTPGVLAGLGAGLALSLWVALGATLYPPSEQTMRVLPSSAARCVALSVNASGLLDPALLPANDSSRAPSSGMDASRPALADSFYAISYLYYGALGTLTTVLCGALISCLTGPTKRSTLAPGLLWWDLARQTASVAPKEEVAILDDNLVKGPEELPTGNKKPPGFLPTNEDRLFFLGQKELEGAGSWTPCVGHDGGRDQQETNL
notes: N-terminally HA-tagged NIS (643 residues) expressed in HeLa cells
Km [5]: 12.01 µM

B3: sodium iodide symporter (zNIS) (Danio rerio) (protein)
chain: MAMDSDRPPGFCLVDYAVFAAMLGVSVGIGLFQSLRKTPGRSKVDSFFTGGRGFSAVPVGLSLCASFMSAVQVLGVPSETYLYGFKFLYMCLGQGLNSLMTAVLFVPVFYRLKITSSSQYLGMRFGRGMQLLGSLQFIVATLLYTGIVIFAPAVILNQATGLNMWASLFSTGLICTFYTTVGGMKAVIWTDVFQIVVMLSGFIAVFIQGTILAGGPARVLEIANNGSRINFNDFAIDPQRRYSFWSFTVGGTMVWLSMYGANQAQVQRYISCRTEKQAQLALLVNQVGLCLIVSSAATCGIVMFALYSNCDPLKIGRISAPDQYMPYLVLDIFRNHPGFPGLFLACAYSGTLSTVSTSINAMAAVTMEDVMKPWLITISQRKQLMLSRALSLFYGLGCITMAALSSLLDWGVLQGSFTVMGVVNGPLLGAFALGMFVPATNKPGVFSGVAVGFCLSLWLAVGSTIYPPSPQIMGVLPTSAGQCLTTNATLNTTASVLASSVPLDYSFQNIYSISYLYFGALSTSAVVLVGVVVSYITGPTKKDSISPGLLRWNLEQKPCDASCHILNETITLNPTEILLTPKELFPIAADKQDILLTKGEI
notes: N-terminally HA-tagged NIS (601 residues, NP_001082860.1) expressed in HeLa cells
Km [6]: 3.688 µM
